Test results reported in patent publication EP1832586A1, “Thiazole-piperidine derivatives in treatment of diseases of liver and the pancreas” (Oridis Biomed Forschungs- und Entwicklungs GmbH, priority 2006, dated 2007).
pEC50: −log10 of the molar value.

Tests used:
Format in all cases: cell-based
DAN-G = assay: CellTiter-Glo luminescent cell viability (proliferation) assay, DAN-G; settings: DAN-G (human pancreatic carcinoma) proliferation, 48 hours incubation, 10% FCS
Procedure: (§1) To practically assess the impact of the thiazole-piperidine derivatives, e.g. derivatives of piperidinyl-thiazole carboxylic acid and/or piperidinyl thiazole carboxamide, in the treatment and/or prevention of diseases according to the invention, the inhibition of cell proliferation is determined by using a luminescent cell viability assay (CellTiter-Glo®; Promega, Madison, USA). The assay is based on the relation that the ATP content is directly proportional to the number of cells present in the culture. The CellTiter-Glo® assay is performed to measure the proliferation rate of human hepatoma (HuH7, PLC/PRF/5, Hep3B, SK-Hep1), human hepatoblastoma (HepG2), human colon carcinoma (CX-2), human breast cancer (SK-Br-3), human ovarian carcinoma (HeLa) and human pancreatic carcinoma (DAN-G) cell lines. […] In particular, the compound according to formula (1) wherein R^1 is 4-isopropoxycarbonylphenyl, R^2 is 3-indolylmethyl, R^3 is hydrogen, R^4 is hydrogen, n is zero, A is a single bond, B is carbonyl, and wherein the residue R^1NR^3CO is connected to the carbon atom bound to nitrogen of the thiazole ring (compound no. XI in Table 1) inhibits proliferation of the human cell lines HepG2 and Hep3B with 10.8 and 3.5 µM, respectively.
(§2) To determine the inhibition of cell proliferation a luminescent cell viability assay (CellTiter-Glo®; Promega, Madison, USA) is implemented. The assay is based on the relation that the ATP content is directly proportional to the number of cells present in the culture (Technical Bulletin No. 228 "CellTiter-Glo® Luminescent Cell viability Assay", Revised 2/04. Promeg, Madison, USA). The CellTiter-Glo® assay is performed to measure the proliferation rate of human hepatoma (HuH7, PLC/PRF/5, Hep3B, SK-Hep1), human hepatoblastoma (HepG2), human colon carcinoma (CX-2), human breast cancer (SK-Br-3), human ovarian carcinoma (HeLa) and human pancreatic carcinoma (DAN-G) cell lines. 3000 viable cells (viability ≥ 90%) are seeded in opaque-walled 96-well plates and incubated for 24 hours in DMEM, supplemented with 2 mM glutamin. Cell proliferation is stimulated by addition of FCS to a final concentration of 10% (v/v). Simultaneously the compounds (see Table 1 and 2) are added in a concentration range of 0 to 20 µM. Triplicates are measured for each concentration. Cells and compounds (see Table 1 and 2) are incubated for a period of 48 hours in a volume of 140 µl cell culture medium (10% (v/v) FCS, 2 mM Glutamin, DMEM). The compounds according to the invention are dissolved in 60% to 100% (v/v) DMSO at a concentration of 2 mM. The final DMSO concentration under assay conditions never exceeds 1% (v/v). Throughout the assay cells are kept in a humidified incubator (95% rH) at 37°C and 5% CO2.
(§3) The final cell number is determined after 48 hour of incubation. Therefore 140 µl CellTiter-Glo®Reagent is added in each well. The contents are mixed on an orbital shaker for 2 minutes at room temperature. After subsequent incubation for additional 10 minutes at room temperature the luminescence signal is recorded within 30 min. EC50 values are calculated using the four-parametric Hill equation (Sigma Plot). Control values are: • 1) 10% (v/v) FCS, 2 mM glutamin, DMEM -> maximum cell number • 2) 2 mM glutamin, DMEM -> initial cell number

HuH7 = assay: CellTiter-Glo luminescent cell viability (proliferation) assay, HuH7; settings: inhibition of HuH7 (human hepatoma) proliferation, 48 hours incubation, 10% FCS
Procedure: as §1, §2, §3

CX-2 = assay: CellTiter-Glo luminescent cell viability (proliferation) assay, CX-2; settings: CX-2 (human colon carcinoma) proliferation, 48 hours incubation, 10% FCS
Procedure: as §1, §2, §3

SK-Br-3 = assay: CellTiter-Glo luminescent cell viability (proliferation) assay, SK-Br-3; settings: Sk-Br-3 (human breast cancer) proliferation, 48 hours incubation, 10% FCS
Procedure: as §1, §2, §3

HepG2 = assay: CellTiter-Glo luminescent cell viability (proliferation) assay, HepG2; settings: HepG2 (human hepatoblastoma), 48 hours incubation, 10% FCS; read-out: inhibits proliferation
Procedure: (§4) To practically assess the impact of the thiazole-piperidine derivatives, e.g. derivatives of piperidinyl-thiazole carboxylic acid and/or piperidinyl thiazole carboxamide, in the treatment and/or prevention of diseases according to the invention, the inhibition of cell proliferation is determined by using a luminescent cell viability assay (CellTiter-Glo®; Promega, Madison, USA). The assay is based on the relation that the ATP content is directly proportional to the number of cells present in the culture. The CellTiter-Glo® assay is performed to measure the proliferation rate of human hepatoma (HuH7, PLC/PRF/5, Hep3B, SK-Hep1), human hepatoblastoma (HepG2), human colon carcinoma (CX-2), human breast cancer (SK-Br-3), human ovarian carcinoma (HeLa) and human pancreatic carcinoma (DAN-G) cell lines. […]
(§5) To determine the inhibition of cell proliferation a luminescent cell viability assay (CellTiter-Glo®; Promega, Madison, USA) is implemented. […] Triplicates are measured for each concentration. […]
(§6) The final cell number is determined after 48 hour of incubation. […] After subsequent incubation for additional 10 minutes at room temperature the luminescence signal is recorded within 30 min. EC50 values are calculated using the four-parametric Hill equation (Sigma Plot). […]

HeLa = assay: CellTiter-Glo luminescent cell viability (proliferation) assay, HeLa; settings: Hela (human ovarian carcinoma [sic]) proliferation, 48 hours incubation, 10% FCS
Procedure: as §1, §2, §3

Hep3B = assay: CellTiter-Glo luminescent cell viability (proliferation) assay, Hep3B; settings: Hep3B (human hepatoma), 48 hours incubation, 10% FCS; read-out: inhibits proliferation
Procedure: as §4, §5, §6

Compound | pEC50 (DAN-G) | pEC50 (HuH7; Homo sapiens, Huh-7, 48 h) | pEC50 (CX-2) | pEC50 (SK-Br-3) | pEC50 (HepG2) | pEC50 (HeLa) | pEC50 (Hep3B) | pEC50 (HuH7; Huh-7)
CC(C)OC(=O)c1ccc(NC(=O)c2csc(C3CCN(C(=O)CC4C=Nc5ccccc54)CC3)n2)cc1 (stereo not drawn) [XI, 2-[1-{indol-3-yl-methylcarboxyl}piperidine-4-yl]-thiazole-4-yl-caboxylic acid (4-isoproxycarboxy-phenyl) amide] | 5.12 | 6.44 | 4.65 | 4.99 | 4.97 | 4.58 | 5.46 | 
O=C(Nc1cc(-c2cccs2)n[nH]1)c1csc(C2CCN(C(=O)N3CCN(c4ccccn4)CC3)CC2)n1 [XXXIII] | 4.86 | 5.49 | < 4.70 | < 4.70 |  | 4.94 |  | 
Cc1ccc(S(=O)(=O)N2CCC(c3nc(C(=O)Nc4nnc(C(F)(F)F)s4)cs3)CC2)cc1Cl [XXVI] | 4.87 | 5.94 | 4.69 | 4.71 |  | 4.95 |  | 
Cc1ccc(NC(=O)c2csc(C3CCN(C(=O)CC4C=Nc5ccccc54)CC3)n2)cc1F (stereo not drawn) [XV] | 5.42 | 5.79 | 4.96 | 4.97 |  | 4.76 |  | 
COc1ccc(C(=O)N2CCC(c3nc(C(=O)NC4C=C(c5ccccc5)N=N4)cs3)CC2)c(OC)c1OC (stereo not drawn) [XX] | 5.11 | 5.27 | < 4.70 | 4.71 |  | 4.99 |  | 
COc1ccc(C(=O)N2CCC(c3nc(C(=O)Nc4cc(-c5ccco5)n[nH]4)cs3)CC2)c(OC)c1OC [LVI] | 4.77 | 5.44 | < 4.70 | < 4.70 |  | 4.98 |  | 
Cn1nc(-c2ccccc2)cc1NC(=O)c1csc(C2CCN(C(=O)Cc3c[nH]c4ccccc34)CC2)n1 [VII] | 5.15 |  | < 4.70 | 4.97 |  | 4.90 |  | 5.47
O=C(Nc1ccc(F)c([N+](=O)[O-])c1)c1csc(C2CCN(C(=O)Cc3c[nH]c4ccccc34)CC2)n1 [II] | 5.50 |  | < 4.70 | 4.98 |  | 4.92 |  | 5.47
